Series [1] can be described thus: Parallel artificial membrane permeability assay (PAMPA). The class given is in vitro ADME. To be noted: for Papp: pH 7.4, PAMPA, pH7.4, read-out: Permeability(pH7.4) (PAMPA_Pion_Lipid 1e-6 cm/s). On the procedure: (§1) The rat liver microsomal stability, parallel artificial membrane permeability assay (PAMPA), and aqueous kinetic solubility assay in phosphate-buffered saline (PBS) buffer were performed as described in the indicated references.
(In general: In PAMPA a lipid-coated filter parts donor from acceptor wells.)

The nature of series [2]: Rat liver microsomal stability. To be noted: for half-life: SD, rat, liver microsomes, read-out: Rat_SD/Microsomes t1/2 (m). Type of series: in vitro ADME. On the procedure:
as §1
Background: Microsomes from liver hold many membrane-bound enzymes, among them those of drug oxidation.

Series [3] can be described thus: Aqueous kinetic solubility in PBS buffer. Type of series: physicochemical. On the procedure: as §1
The next series addresses T1, Bovine Xanthine Oxidase (Bos taurus, UniProt P80457).
T1 construct: purchased Sigma
Put plainly: Xanthine oxidase / hypoxanthine luminol chemiluminescence assay. The class given is biochemical. To be noted: xanthine oxidase with hypoxanthine; mean ± SD, n in cell; read-out: X/XO IC50. On the procedure:
Bovine Xanthine Oxidase (Sigma) was dialyzed in PBS to remove ammonium sulfate and stored at 4 °C. Hypoxanthine was prepared by heating in DMSO. Reactions were prepared by diluting xanthine oxidase in HBSS (final concentration 1.25 mU/mL) that contained 50 μM luminol and were preincubated 5 min with control or inhibitor before the addition of hypoxanthine at a final concentration of 0.5 mM. Luminescence was measured at 24 °C as described above.

The target of the next series is T2, NOX2 (Homo sapiens, UniProt P04839).
T2 sequence (P04839 2-570 limits assumed): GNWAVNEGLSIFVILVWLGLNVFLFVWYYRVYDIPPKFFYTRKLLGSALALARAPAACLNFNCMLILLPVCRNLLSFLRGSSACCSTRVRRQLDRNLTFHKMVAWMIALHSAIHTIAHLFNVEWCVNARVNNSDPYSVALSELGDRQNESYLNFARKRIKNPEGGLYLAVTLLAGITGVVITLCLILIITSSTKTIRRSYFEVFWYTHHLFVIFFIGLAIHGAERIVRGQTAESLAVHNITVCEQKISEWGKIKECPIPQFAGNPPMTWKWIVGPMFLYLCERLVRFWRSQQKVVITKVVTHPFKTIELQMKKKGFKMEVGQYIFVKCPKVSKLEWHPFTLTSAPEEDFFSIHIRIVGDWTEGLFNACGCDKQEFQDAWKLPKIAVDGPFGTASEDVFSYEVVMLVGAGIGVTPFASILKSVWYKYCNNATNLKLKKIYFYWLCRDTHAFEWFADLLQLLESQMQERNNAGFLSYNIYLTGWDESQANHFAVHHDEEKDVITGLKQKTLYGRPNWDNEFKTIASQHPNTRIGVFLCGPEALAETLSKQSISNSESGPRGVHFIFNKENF
T2 sequence (P13498 2-195 partner limits assumed): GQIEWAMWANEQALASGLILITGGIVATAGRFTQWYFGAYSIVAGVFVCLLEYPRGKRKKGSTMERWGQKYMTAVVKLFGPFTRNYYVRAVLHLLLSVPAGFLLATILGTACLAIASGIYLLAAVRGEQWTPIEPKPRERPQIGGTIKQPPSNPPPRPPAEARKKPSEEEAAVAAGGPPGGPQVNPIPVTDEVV
Put plainly: NOX2 activity in primary human granulocytes (PMN), luminol chemiluminescence. Type of series: cell-based. Further details: When tested against NOX2 in primary human neutrophils; endogenous in cells; host or cells: primary human granulocytes (PMN) from donor blood. Particulars: mean ± SD, n in cell; read-out: NOX-2 IC50 from PMN. On the procedure: Human blood was obtained after informed consent by the Department of Transfusion Medicine (NIH Clinical Center) and provided as de-identified specimens. Human granulocytes were isolated using Percoll density fractionation as described and NOX2 activity was assessed in white polypropylene flat bottom 96 well plates following 15 min of preincubation at 37 °C with compounds or vehicle controls using 50 μM luminol as a chemiluminescence enhancer in an assay volume of 100 μl RPMI1640 with 1.1 × 10^5 cells/well in Varioskan Lux luminometer for 30 cycles of 1 s per well (approximately 1 h).

Setting [4] is: aqueous buffer, kinetic from dmso stock, read-out: Solubility.

SMILES strings stand for the structures. Converted amounts (≈) assume the structure as drawn. Like-named read-outs stand apart in the source and are kept apart here.

T1 sequence (P80457 whole entry): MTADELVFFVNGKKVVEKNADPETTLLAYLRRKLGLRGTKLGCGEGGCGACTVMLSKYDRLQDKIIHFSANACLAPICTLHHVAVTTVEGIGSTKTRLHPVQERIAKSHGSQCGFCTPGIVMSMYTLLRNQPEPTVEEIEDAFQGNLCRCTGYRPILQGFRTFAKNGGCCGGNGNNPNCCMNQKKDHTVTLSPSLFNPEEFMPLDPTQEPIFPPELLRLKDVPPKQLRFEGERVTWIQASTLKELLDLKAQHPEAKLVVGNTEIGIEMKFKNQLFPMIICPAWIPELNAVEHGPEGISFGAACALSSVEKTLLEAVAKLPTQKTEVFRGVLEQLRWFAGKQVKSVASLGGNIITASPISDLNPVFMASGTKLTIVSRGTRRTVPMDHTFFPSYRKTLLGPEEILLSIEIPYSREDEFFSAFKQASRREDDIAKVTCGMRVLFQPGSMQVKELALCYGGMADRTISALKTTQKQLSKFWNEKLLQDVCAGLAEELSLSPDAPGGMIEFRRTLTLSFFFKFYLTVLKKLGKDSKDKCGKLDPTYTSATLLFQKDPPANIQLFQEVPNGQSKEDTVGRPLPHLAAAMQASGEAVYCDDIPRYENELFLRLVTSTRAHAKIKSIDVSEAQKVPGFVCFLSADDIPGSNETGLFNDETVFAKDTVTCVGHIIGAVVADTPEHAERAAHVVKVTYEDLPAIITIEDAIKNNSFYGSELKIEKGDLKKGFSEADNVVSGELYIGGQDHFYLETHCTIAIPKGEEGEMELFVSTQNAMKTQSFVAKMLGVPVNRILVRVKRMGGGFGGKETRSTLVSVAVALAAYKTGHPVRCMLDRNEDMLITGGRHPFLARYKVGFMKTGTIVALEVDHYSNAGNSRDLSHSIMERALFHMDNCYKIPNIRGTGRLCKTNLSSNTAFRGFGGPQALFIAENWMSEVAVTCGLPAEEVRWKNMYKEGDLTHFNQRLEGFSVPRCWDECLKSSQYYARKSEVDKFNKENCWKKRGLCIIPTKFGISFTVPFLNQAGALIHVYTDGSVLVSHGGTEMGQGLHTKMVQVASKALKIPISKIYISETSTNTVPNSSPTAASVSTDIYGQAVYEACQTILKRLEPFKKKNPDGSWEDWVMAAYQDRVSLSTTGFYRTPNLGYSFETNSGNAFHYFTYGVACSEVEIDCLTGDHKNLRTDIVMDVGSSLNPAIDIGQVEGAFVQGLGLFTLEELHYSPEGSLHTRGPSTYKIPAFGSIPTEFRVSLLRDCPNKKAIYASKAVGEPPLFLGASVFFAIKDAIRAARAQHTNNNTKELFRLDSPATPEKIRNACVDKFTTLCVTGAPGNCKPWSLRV

As for `CC(C)n1cc(-c2ccc3c(c2)N(C)CC3)c2c(N[S+](=O)([O-])c3ccn(C)n3)ccnc21` [NCGC00507962, CC(C)[N]1C=C(C2=CC3=C(CCN3C)C=C2)C4=C(N[S+]([O-])(=O)C5=N[N](C)C=C5)C=CN=C14], the Papp in series [1] stood at 1030 ×10⁻⁶ cm/s. Moreover, the half-life in series [2] came out at 1.1 min. For the same compound, the solubility in series [3] (setting [4]) was 36.7 µg/mL (≈ 81.5 µM).
For the compound `CC(n1cc(-c2ccc3ccn(C)c3c2)c2c(N[S+](=O)([O-])c3ccn(C)n3)ccnc21)C(F)(F)F` (stereo not drawn) [NCGC00600714, CC(N1C=C(C2=C(N[S+]([O-])(=O)C3=NN(C)C=C3)C=CN=C12)C4=CC5=C(C=CN5C)C=C4)C(F)(F)F], the IC50 at Bovine Xanthine Oxidase amounted to 4.7 µM; on NOX2, 0.328 µM. Also, the Papp in series [1] amounted to 479 ×10⁻⁶ cm/s. Also, in series [2], the half-life came to 7.7 min. Further, the solubility in series [3] (setting [4]) was less than 1 µg/mL.
For `CN1CCc2ccc(-c3cn(C4CC4)c4nccc(N[S+](=O)([O-])c5ccn(C)n5)c34)cc21` [NCGC00600897, CN1C=CC(=N1)[S+]([O-])(=O)NC2=C3C(=CN(C4CC4)C3=NC=C2)C5=CC6=C(CCN6C)C=C5], on Bovine Xanthine Oxidase, the IC50 amounted to 1.38 ± 1.16 µM. Moreover, the Papp in series [1] is 171 ×10⁻⁶ cm/s. Moreover, the half-life in series [2] stood at 1.7 min. Further, the solubility in series [3] (setting [4]) is more than 66 µg/mL.
For the compound `O=C1N(C2CC2)c2cc(-c3cn(C4CC4)c4nccc(N[S+](=O)([O-])c5ccn(C6CC6)n5)c34)ccc2C12CC2` [NCGC00650041, [O-][S+](=O)(NC1=C2C(=CN(C3CC3)C2=NC=C1)C4=CC5=C(C=C4)C6(CC6)C(=O)N5C7CC7)C8=NN(C=C8)C9CC9], the IC50 on Bovine Xanthine Oxidase is 0.18 µM. The Papp in series [1] was 615 ×10⁻⁶ cm/s. In series [2], the half-life was found to be 6.2 min. In series [3] (setting [4]), the solubility came to 2 µg/mL (≈ 3.7 µM).
Take `Cn1ccc([S+](=O)([O-])Nc2ccnc3c2c(-c2ccc4ccn(C)c4c2)cn3C2CC2)n1` [NCGC00650045, CN1C=CC(=N1)[S+]([O-])(=O)NC2=C3C(=CN(C4CC4)C3=NC=C2)C5=CC6=C(C=CN6C)C=C5]: the half-life in series [2] worked out at 1 min. Also, the solubility in series [3] (setting [4]) was found to be 2.2 µg/mL (≈ 4.93 µM). For the same compound, on NOX2, the IC50 is more than 20 µM.
Consider `O=[S+]([O-])(Nc1ccnc2c1c(-c1ccc3c(c1)C(O)CC3)cn2C1CC1)c1ccn(C2CC2)n1` (stereo not drawn) [NCGC00650064, OC1CCC2=C1C=C(C=C2)C3=CN(C4CC4)C5=NC=CC(N[S+]([O-])(=O)C6=NN(C=C6)C7CC7)=C35], for which the IC50 on Bovine Xanthine Oxidase was more than 20 µM. Besides, the Papp in series [1] amounted to 386 ×10⁻⁶ cm/s. Further, the half-life in series [2] is 6.9 min. Moreover, in series [3] (setting [4]), the solubility was 35.9 µg/mL (≈ 75.5 µM).
For the compound `O=C1CCc2ccc(-c3cn(C4CC4)c4nccc(N[S+](=O)([O-])c5ccn(C6CC6)n5)c34)cc21` [NCGC00650069, [O-][S+](=O)(NC1=C2C(=CN(C3CC3)C2=NC=C1)C4=CC5=C(CCC5=O)C=C4)C6=NN(C=C6)C7CC7], in series [1], the “Permeability(pH7.4) (PAMPA_Pion_Lipid 1e-6 cm/s)” value is reported as 188.5 1e-6 cm/s. Further, the “Rat_SD/Microsomes t1/2 (m)” value in series [2] was found to be 16 m. Also, in series [3], the “solubility” value came to 30 µg/mL (≈ 63.4 µM). Moreover, the IC50 at NOX2 came to 1.78 µM.
Turning to `O=C1CCc2ccc(-c3cn(C4CC4)c4nccc(N[S+](=O)([O-])c5ccn(C6CC6)n5)c34)cc21` [NCGC00650070, [O-][S+](=O)(NC1=C2C(=CN(C3CC3)C2=NC=C1)C4=CC5=C(CCC5=O)C=C4)C6=NN(C=C6)C7CC7], the Papp in series [1] came to 256 ×10⁻⁶ cm/s. Moreover, the half-life in series [2] is 13.2 min. In addition, the solubility in series [3] (setting [4]) came to 38.5 µg/mL (≈ 81.3 µM). For the same compound, at NOX2, the IC50 was determined as 0.966 µM.
In the case of `Cn1ccc([S+](=O)([O-])Nc2ccnc3c2c(-c2ccc4c(c2)N(C2CC2)CC4)cn3CC2CCCCC2)n1` [NCGC00650102, CN1C=CC(=N1)[S+]([O-])(=O)NC2=C3C(=CN(CC4CCCCC4)C3=NC=C2)C5=CC6=C(CCN6C7CC7)C=C5], the IC50 on Bovine Xanthine Oxidase came to 4.07 ± 5.43 µM; at NOX2, 2.05 µM. Also, the Papp in series [1] came to 160 ×10⁻⁶ cm/s. Besides, in series [3] (setting [4]), the solubility came out at 5.3 µg/mL (≈ 9.99 µM).
For the compound `Cn1ccc([S+](=O)([O-])Nc2ccnc3c2c(-c2ccc4c(c2)N(C(=O)OC(C)(C)C)CC4)cn3C2CC2)n1` [NCGC00650103, CN1C=CC(=N1)[S+]([O-])(=O)NC2=C3C(=CN(C4CC4)C3=NC=C2)C5=CC6=C(CCN6C(=O)OC(C)(C)C)C=C5], the IC50 is more than 20 µM on Bovine Xanthine Oxidase and 3.93 µM at NOX2. Also, in series [2], the half-life was found to be 4.6 min. Also, in series [3] (setting [4]), the solubility is 8.2 µg/mL (≈ 15.3 µM).

Usually solubility stands for the concentration that dissolves in the medium under given conditions.

For the origin of these results see paper PMC9894920, “Development of an improved and specific inhibitor of NADPH oxidase 2 to treat traumatic brain injury” (Redox Biology, 2023).
